Measurements as given in patent US11976046B1, “4-(4,5-bis(4-bromophenyl)-2-(4-methoxyphenyl)-1H-imidazol-1-yl)benzoic acid as an antimicrobial compound” (KING FAISAL UNIVERSITY, priority 2023, dated 2024).

System: different microbes
Test: agar plate disc-diffusion antimicrobial testing
Type: cell-based
Conditions: against different microbes; screened against gram-positive Bacillus cereus and Staphylococcus aureus, gram-negative Pseudomonas aeruginosa and Escherichia coli, fungi Aspergillus flavus and Chrysosporium keratinophilum
Experimental: The agar plate disc-diffusion method was applied. Sterilized filter papers (6 mm in diameter) were wetted with 10 μL of a solution of 4-(4,5-bis(4-bromophenyl)-2-(4-methoxyphenyl)-1H-imidazol-1-yl)benzoic acid (V) to be tested, containing 10 mg/mL in DMSO, and the discs were allowed to air dry. The discs were then placed onto the surface of agar plates (nutrient agar for bacteria and Sabouraud's dextrose agar for fungi) seeded with the test organism. Each plate contained 15 mL of the agar medium, previously seeded with 0.2 mL of the broth culture of each organism pregrown for 18 hours. The plates were incubated at 37° C. for 48 hours, and 72 hours for fungi. The inhibition zones was measured in mm. Discs impregnated with DMSO were used as a control, and its inhibition zone was subtracted from the tested compound actual inhibition zone.

`COc1ccc(-c2nc(-c3ccc(Br)cc3)c(-c3ccc(Br)cc3)n2-c2ccc(C(=O)O)cc2)cc1` [V, 4-(4,5-bis(4-bromophenyl)-2-(4-methoxyphenyl)-1H-imidazol-1-yl)benzoic acid] was tested, and the antimicrobial activities was “excellent antimicrobial activities”.
